Experiments:
[1] = Heat stability by differential scanning calorimetry (DSC); assay type: physicochemical; conditions: heat stability data by DSC
Experimental: Specifically, 2,7-naphthalenedithiol (2,7-form) described in the Patent Document 1 has a melting point of 186 to 188° C., 2,6-naphthalenedithiol (2,6-form) has a melting point of 196 to 197° C., and 1,5-naphthalenedithiol (1,5-form) described in the Nonpatent Document 1 has a melting point of 120 to 121° C. Thus, these positional isomers of naphthalenedithiol each have a high melting point and are expected to show boiling point elevation due to hydrogen bonds of mercapto groups. […] Thus, it is technically difficult to adopt purification of these naphthalenedithiols by distillation at a relatively high temperature. For example, when 1,5-form, 2,6-form, and 2,7-form are tried to be distilled under vacuum, an outflow (or exit) line is to be maintained at a high temperature in order to prevent crystallization. However, such a high temperature of the outflow line causes not only easy re-evaporation of the naphthalenedithiols in the outflow line but also crystallization and clogging of the naphthalenedithiols in a subsequent line, thus making it impossible to operate the distillation.

[2] = Dissolubility (maximum dissolved concentration in organic solvents, by HPLC); assay type: physicochemical; conditions: 25° C.; for Dissolubility DMF: N,N-dimethylformamide; for Dissolubility PGMEA: propylene glycol monomethyl ether acetate; for Dissolubility THF: tetrahydrofuran
Experimental: In each of predetermined solvents described in the Table below, a sample was mixed at a temperature of 25° C., and the dissolubility of the sample was evaluated. In more detail, the sample was added to a predetermined amount of a solvent until the sample could not be dissolved, and the sample content of the liquid phase (the solvent phase) of the resulting mixture was analyzed using an HPLC (“SPD-20A” manufactured by SHIMADZU CORPORATION), and thus the concentration (the maximum dissolved concentration) of the sample in the liquid phase (the solvent phase) was determined as a solubility.

| SMILES | temperature at which weight decreases by 5% or more [1] [°C] | Dissolubility DMF [2] [% by mass] | Dissolubility Ethyl acetate [2] [% by mass] | Dissolubility Methanol [2] [% by mass] | Dissolubility PGMEA [2] [% by mass] | Dissolubility THF [2] [% by mass] | Dissolubility Toluene [2] [% by mass] |
| --- | --- | --- | --- | --- | --- | --- | --- |
| Sc1cccc2c(S)cccc12 [Comparative Example 5, 1,5-naphthalenedithiol] | 176 | 34.4 | 7.05 | 1.08 | 7.44 | 29.0 | 7.26 |
| Sc1ccc2cc(S)ccc2c1 [Comparative Example 6, 2,6-naphthalenedithiol] | 196 | 3.54 | 0.65 | 0.11 | 0.73 | 4.03 | 0.64 |
| Sc1ccc2ccc(S)cc2c1 [Comparative Example 7, 2,7-naphthalenedithiol] | 188 | 7.75 | 0.90 | 0.16 | 1.05 | 5.24 | 0.76 |
| Sc1ccc2c(S)cccc2c1 [Example 1, 1,6-naphthalenedithiol] | – | – | – | 19.3 | – | – | – |
